Assay results from US8058258B2, “Methods for cancer therapy and stem cell modulation” (Agency for Science, Technology and Research, priority 2006, dated 2011).

Key:
[1] = tested on: SUZ12 binding to PRC2 target gene promoters; assay: ChIP of SUZ12 binding to PRC2 target gene promoters; format: cell-based, human; conditions: MCF-7 cells, 5 μM, 48 hours
Protocol: ChIP assays were performed as described previously. […] MCF-7 cell were seeded into 6-well plates at 30% confluence and treated with or without 3-deazaneplanocin (5 μM) for 48 hours. Cells were washed once in 1× phosphate-buffered saline (PBS) and then treated with 1% formaldehyde in PBS at 37° C. for […] followed by the addition of glycine to a final concentration of 0.125 M for 5 mM. Cells were then scraped on ice and centrifuged at 1500 rpm for 5 mM at 4° C. After washing with PBS cell pellets were resuspended in 1 mL of cold lysis buffer (10 mM HEPES at pH 7.5, 1 mM EDTA at pH 8.0, 400 mM NaCl, 10% glycerol, 0.5% NP-40, 0.5 mM phenylmethylsulfonyl fluoride, and protease inhibitors [1 mM benzamidine, 3 mg/mL leupeptin, 0.1 mg/mL bacitracin, 1 mg/mL macroglobulin]) followed by centrifugation at 11,500 rpm in a microfuge for 5 min at 4° C. to remove protein not cross-linked to chromatin. The resulting pellets were then resuspended again in 1 mL of cold lysis buffer and sonicated with a Heat Systems-Ultrasonics, Inc. W-220 sonicator at 20% output for a total of 2 mM (pulsed: 30 sec on/30 sec off). The resulting solution was cleared by centrifugation at maximum speed in a microfuge for 10 mM at 4° C. At this point 5% of the solution was taken and stored at −20° C. for the input chromatin sample. […]

[2] = tested on: CC33D cells; assay: Microscopy examination of cell death in primary colon epithelial cells; format: cell-based; conditions: normal primary colon epithelial CC33D cells compared to HCT116
Text: To determine whether 3-deazaneplanocin preferentially induces apoptosis in cancer cells, the apoptosis induction between MCF-7 cells and the non-cancerous breast epithelial MCF10A cells was compared for various periods of time. […] In addition, normal primary colon epithelial CC33D cells, like MCF10A cells, were also resistant to 3-deazaneplanocin treatment compared to colorectal cancer HCT116 cell, as evaluated by microscopy examination (FIGS. 3G & 3H).

[3] = tested on: Suv39h1; assay: Western blot of Suv39h1 protein levels; format: cell-based, human; conditions: HCT116 or MCF-7 cells, 5 μM, 48 and 72 hours
Protocol: Cell lines used in these examples were purchased from the American Type Culture Collection (Manassas, Va.). Cells were maintained in DMEM supplemented with 10% fetal bovine serum with glutamine, penicillin, and streptomycin. For drug treatment, cells were seeded the day before the drug treatment. Cells were treated with 5 μM 3-Deazaneplanocin A or 2 μM 5-aza-2'-deoxycytidine (5-AzaC; Sigma) for 72 hours and trichostatin A (TSA; Sigma) at 100 nM for 24 hours. For co-treatment of cells with 5-AzaC and TSA, 5-Aza was added for 48 hours and followed by TSA for 24 hours. Cell pellets were first lysed in RadioImmuno Precipitation Assay (RIPA) buffer, consisting of an aqueous solution of 25 mM Tris-HCl pH 7.6, 150 mM NaCl, 1% Nonidet-P 40 (NP-40), 1% sodium deoxycholate and 0.1% sodium dodecylsulfate (SDS), before further sonicated using a tissue homogeniser to release all the proteins. Equal amounts of protein were separated on SDS-polyacrylamide gels and transferred to polyvinylidene difluoride (PVDF) membranes. The blots were probed with antibodies against: EED (07-368), SUZ12 (07-379), SUV39H1 (07-550), BMI1 (05-637), tri-methylated H3-K27 (07-449), tri-methylated H3-K9 (07-442) and Acetyl-Histone H3 (06-599), and were purchased from Upstate. EZH2 (AC22) and Histone H3 (3H1) were from Cell Signaling. […]

## Nc1nccc2c1ncn2C1C=C(CO)C(O)C1O (stereo not drawn) [3-deazaneplanocin, 5-(4-amino-1H-imidazo[4,5-c]pyridin-1-yl)-3-(hydroxymethyl)-3-cyclopentene-1,2-diol]
[1]
  SUZ12 binding to PRC2 target gene promoters (ChIP): markedly reduced
[2]
  sensitivity to treatment, microscopy examination: resistant
[3]
  Suv39h1 protein levels: not affected
